According to patent publication US12427210B2, “Compounds comprising a fibroblast activation protein ligand and use thereof” (priority 2019, dated 2025):

What was measured:
FAP = FAP (Homo sapiens, UniProt Q12884); conditions: 100 nM
[1] = target: T1, Ubiquitin carboxy-terminal hydrolase L1 (Homo sapiens, UniProt P09936); conditions: 100 nM
T1 sequence (P09936 1-223): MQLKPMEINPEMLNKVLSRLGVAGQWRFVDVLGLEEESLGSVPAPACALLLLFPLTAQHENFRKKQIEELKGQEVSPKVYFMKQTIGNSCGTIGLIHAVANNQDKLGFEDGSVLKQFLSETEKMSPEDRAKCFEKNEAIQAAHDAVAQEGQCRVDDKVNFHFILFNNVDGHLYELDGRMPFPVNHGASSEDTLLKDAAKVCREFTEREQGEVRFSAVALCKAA

Deubiquitinase OTUD6B = target: T2, Deubiquitinase OTUD6B (Homo sapiens, UniProt Q8N6M0); conditions: 1 μM
T2 sequence (Q8N6M0 1-293): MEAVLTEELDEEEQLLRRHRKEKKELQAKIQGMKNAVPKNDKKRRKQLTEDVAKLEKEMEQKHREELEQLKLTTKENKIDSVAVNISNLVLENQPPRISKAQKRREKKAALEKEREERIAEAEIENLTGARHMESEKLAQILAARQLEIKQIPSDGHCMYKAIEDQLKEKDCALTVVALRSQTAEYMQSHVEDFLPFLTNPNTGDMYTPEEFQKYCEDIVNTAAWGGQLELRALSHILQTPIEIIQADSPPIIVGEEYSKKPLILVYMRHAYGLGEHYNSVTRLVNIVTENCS

[2] = target: T3, Ubiquitin carboxyl-terminal hydrolase 8 (Homo sapiens, UniProt P40818); conditions: 1 μM
T3 sequence (P40818 1-1118): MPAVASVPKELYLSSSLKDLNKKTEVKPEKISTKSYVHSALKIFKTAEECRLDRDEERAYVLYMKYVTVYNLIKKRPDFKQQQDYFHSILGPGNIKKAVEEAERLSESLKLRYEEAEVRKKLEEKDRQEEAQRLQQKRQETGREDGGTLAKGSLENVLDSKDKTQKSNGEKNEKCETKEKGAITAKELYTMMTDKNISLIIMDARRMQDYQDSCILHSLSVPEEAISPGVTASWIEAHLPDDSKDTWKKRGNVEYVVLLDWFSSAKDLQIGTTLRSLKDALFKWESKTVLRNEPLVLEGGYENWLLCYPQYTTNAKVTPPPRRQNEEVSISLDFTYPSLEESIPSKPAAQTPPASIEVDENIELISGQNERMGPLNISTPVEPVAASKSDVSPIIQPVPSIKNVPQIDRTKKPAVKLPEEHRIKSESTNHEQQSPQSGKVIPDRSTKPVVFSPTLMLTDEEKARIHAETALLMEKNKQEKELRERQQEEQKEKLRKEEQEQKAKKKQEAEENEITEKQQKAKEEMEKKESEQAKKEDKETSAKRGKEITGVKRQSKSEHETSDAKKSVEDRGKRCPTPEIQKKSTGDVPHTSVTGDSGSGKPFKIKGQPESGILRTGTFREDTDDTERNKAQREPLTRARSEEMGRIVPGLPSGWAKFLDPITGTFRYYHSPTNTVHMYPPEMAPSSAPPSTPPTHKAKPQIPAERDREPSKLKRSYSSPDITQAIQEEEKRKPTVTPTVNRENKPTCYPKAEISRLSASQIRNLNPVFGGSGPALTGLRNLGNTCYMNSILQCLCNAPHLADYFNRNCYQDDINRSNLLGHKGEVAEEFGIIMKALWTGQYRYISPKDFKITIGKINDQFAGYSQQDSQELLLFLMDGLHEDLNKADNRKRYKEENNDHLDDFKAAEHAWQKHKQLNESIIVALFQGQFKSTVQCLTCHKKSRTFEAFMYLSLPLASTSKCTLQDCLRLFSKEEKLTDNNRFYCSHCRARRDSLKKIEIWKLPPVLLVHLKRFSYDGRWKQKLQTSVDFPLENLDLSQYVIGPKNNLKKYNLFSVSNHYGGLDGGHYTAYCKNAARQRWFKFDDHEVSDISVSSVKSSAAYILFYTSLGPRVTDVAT

[3] = target: T4, Ubiquitin carboxyl-terminal hydrolase 5 (Homo sapiens, UniProt P45974); conditions: 1 μM
T4 sequence (P45974 1-858): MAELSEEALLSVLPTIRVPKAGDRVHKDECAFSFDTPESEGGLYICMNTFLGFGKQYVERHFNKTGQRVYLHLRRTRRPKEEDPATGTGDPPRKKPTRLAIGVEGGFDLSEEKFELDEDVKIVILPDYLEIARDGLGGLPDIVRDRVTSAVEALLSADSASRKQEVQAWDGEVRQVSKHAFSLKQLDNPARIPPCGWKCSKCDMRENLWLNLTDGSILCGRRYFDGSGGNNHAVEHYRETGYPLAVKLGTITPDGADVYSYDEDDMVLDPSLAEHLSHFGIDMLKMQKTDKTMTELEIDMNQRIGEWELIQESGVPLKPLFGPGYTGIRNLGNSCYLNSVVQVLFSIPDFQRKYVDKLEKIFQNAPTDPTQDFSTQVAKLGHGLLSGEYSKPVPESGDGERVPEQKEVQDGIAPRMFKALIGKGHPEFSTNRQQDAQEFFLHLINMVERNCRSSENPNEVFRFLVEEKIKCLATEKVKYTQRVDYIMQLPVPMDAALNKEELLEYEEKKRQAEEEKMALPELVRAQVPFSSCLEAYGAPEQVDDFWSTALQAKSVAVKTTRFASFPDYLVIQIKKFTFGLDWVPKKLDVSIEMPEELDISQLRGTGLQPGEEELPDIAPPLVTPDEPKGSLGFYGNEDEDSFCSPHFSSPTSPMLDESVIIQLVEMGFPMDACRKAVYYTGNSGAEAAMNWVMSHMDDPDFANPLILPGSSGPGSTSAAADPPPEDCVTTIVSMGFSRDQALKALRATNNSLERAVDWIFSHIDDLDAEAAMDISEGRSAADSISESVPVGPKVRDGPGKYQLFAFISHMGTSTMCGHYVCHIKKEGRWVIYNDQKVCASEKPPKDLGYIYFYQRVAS

[4] = target: T5, Ubiquitin carboxy-terminal hydrolase L3 (Homo sapiens, UniProt P15374); conditions: 10 nM
T5 sequence (P15374 1-230): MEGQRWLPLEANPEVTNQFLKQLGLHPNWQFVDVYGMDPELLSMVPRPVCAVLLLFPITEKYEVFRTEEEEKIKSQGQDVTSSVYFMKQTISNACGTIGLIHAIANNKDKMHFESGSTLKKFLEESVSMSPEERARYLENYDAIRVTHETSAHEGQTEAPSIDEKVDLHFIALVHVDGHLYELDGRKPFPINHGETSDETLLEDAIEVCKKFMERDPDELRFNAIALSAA

Ataxin3 = Ataxin3 (Homo sapiens, UniProt P54252); conditions: 10 μM
[5] = target: Ubiquitin carboxyl-terminal hydrolase 10 (Homo sapiens, UniProt Q14694); conditions: 1 μM
[6] = target: T6, Ubiquitin carboxyl-terminal hydrolase 2 (Homo sapiens, UniProt O75604); conditions: 1 μM
T6 sequence (O75604 1-605): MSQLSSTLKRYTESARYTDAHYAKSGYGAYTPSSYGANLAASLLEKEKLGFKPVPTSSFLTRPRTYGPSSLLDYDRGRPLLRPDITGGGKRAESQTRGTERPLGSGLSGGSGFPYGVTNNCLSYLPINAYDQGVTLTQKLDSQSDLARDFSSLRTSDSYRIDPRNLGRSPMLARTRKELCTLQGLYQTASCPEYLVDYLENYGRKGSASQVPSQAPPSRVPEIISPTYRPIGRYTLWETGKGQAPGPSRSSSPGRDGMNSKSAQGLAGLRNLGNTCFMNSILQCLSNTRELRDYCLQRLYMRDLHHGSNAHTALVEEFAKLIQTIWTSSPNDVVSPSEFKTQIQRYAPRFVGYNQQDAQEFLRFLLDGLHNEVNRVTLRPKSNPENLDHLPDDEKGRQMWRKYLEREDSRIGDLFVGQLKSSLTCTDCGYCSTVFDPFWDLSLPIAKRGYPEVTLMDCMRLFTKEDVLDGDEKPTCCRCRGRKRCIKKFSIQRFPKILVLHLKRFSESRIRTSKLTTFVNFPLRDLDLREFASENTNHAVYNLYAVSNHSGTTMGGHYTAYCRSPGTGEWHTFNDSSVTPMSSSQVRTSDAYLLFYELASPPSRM

[7] = target: Ubiquitin carboxyl-terminal hydrolase 14 (Homo sapiens, UniProt P54578); conditions: 100 nM
[8] = target: Ubiquitin carboxyl-terminal hydrolase 7 (Homo sapiens, UniProt Q93009); conditions: 1 μM
DPP8 = DPP8 (Homo sapiens, UniProt Q6V1X1); conditions: 200 μM
DPP7 = DPP7 (Homo sapiens, UniProt Q9UHL4); conditions: 200 μM
[9] = target: serine protease NS3 (a.a. 3-181) from Hepatitis C virus genotype 2a (Hepatitis C virus genotype 2a, UniProt Q99IB8); conditions: 100 nM
[10] = test system: serine protease NS3 (a.a. 3-181) from Hepatitis C virus genotype 1b; conditions: Reference, 100 nM
[11] = test system: serine protease NS3 (a.a. 3-181) from Hepatitis C virus genotype 1a (mutant D168V); conditions: Reference, 100 nM

Chain of FAP (Q12884 whole entry): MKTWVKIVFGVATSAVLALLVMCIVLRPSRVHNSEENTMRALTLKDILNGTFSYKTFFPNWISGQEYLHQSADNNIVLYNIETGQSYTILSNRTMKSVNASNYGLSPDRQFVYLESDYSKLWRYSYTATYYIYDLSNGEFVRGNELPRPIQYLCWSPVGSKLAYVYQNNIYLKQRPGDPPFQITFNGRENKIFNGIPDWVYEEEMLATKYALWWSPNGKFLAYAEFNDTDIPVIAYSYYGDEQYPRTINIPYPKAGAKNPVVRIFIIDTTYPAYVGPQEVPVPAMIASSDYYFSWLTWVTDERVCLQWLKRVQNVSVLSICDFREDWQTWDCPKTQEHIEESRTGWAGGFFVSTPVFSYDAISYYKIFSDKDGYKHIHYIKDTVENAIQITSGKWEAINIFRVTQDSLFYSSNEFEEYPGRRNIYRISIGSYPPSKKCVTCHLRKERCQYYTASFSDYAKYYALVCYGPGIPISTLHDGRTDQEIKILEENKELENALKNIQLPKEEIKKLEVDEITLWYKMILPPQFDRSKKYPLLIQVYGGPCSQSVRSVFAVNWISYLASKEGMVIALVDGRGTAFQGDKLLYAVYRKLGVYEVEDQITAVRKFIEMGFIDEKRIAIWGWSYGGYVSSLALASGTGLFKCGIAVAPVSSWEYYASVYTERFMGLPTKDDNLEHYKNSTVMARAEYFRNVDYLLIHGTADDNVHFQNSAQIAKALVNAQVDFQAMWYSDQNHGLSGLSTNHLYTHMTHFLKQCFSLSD
Chain of DPP8 (Q6V1X1 whole entry, species assumed): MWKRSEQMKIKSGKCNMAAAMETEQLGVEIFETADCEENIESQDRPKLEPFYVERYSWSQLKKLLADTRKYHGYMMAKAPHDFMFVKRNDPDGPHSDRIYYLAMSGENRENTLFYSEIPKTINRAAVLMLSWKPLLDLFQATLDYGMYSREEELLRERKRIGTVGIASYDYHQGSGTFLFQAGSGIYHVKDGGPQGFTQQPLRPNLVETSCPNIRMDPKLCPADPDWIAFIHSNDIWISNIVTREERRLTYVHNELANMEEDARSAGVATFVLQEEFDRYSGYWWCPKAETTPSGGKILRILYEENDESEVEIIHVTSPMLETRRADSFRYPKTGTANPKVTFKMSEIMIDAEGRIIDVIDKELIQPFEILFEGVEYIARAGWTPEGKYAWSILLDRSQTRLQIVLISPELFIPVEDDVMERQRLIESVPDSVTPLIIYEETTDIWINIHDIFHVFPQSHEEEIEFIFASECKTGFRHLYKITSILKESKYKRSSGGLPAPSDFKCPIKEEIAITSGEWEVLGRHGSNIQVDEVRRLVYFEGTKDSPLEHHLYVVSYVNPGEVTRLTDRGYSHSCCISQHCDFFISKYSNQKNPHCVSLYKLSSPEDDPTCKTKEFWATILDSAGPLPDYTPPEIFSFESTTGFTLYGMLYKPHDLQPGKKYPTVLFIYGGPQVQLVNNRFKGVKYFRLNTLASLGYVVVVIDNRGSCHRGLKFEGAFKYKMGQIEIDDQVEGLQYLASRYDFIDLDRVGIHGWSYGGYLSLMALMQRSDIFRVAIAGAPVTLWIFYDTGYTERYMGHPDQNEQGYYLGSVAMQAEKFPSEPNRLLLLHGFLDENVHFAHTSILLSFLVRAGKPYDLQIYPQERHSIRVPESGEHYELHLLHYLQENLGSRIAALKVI
Chain of Ubiquitin carboxyl-terminal hydrolase 10 (Q14694 whole entry): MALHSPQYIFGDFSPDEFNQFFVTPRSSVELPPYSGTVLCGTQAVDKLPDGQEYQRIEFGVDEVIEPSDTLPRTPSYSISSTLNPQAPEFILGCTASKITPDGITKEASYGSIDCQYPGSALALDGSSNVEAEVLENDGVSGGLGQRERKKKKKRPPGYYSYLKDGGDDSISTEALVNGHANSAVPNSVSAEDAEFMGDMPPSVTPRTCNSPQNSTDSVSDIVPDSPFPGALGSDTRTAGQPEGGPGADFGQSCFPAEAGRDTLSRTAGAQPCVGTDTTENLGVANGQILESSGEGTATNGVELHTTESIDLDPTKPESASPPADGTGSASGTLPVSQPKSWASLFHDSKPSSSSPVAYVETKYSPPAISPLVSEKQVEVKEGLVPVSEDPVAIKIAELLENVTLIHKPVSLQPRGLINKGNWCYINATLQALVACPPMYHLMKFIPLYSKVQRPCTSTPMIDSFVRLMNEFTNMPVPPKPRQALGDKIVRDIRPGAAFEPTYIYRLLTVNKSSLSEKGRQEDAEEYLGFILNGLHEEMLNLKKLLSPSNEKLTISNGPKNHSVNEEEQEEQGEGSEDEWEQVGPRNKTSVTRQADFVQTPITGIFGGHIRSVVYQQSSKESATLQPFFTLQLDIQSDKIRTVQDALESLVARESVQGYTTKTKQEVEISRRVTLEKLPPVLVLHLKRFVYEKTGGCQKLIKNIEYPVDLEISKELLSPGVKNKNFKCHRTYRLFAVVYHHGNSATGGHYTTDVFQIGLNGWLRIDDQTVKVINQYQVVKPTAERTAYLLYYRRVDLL
Chain of Ubiquitin carboxyl-terminal hydrolase 7 (Q93009 whole entry): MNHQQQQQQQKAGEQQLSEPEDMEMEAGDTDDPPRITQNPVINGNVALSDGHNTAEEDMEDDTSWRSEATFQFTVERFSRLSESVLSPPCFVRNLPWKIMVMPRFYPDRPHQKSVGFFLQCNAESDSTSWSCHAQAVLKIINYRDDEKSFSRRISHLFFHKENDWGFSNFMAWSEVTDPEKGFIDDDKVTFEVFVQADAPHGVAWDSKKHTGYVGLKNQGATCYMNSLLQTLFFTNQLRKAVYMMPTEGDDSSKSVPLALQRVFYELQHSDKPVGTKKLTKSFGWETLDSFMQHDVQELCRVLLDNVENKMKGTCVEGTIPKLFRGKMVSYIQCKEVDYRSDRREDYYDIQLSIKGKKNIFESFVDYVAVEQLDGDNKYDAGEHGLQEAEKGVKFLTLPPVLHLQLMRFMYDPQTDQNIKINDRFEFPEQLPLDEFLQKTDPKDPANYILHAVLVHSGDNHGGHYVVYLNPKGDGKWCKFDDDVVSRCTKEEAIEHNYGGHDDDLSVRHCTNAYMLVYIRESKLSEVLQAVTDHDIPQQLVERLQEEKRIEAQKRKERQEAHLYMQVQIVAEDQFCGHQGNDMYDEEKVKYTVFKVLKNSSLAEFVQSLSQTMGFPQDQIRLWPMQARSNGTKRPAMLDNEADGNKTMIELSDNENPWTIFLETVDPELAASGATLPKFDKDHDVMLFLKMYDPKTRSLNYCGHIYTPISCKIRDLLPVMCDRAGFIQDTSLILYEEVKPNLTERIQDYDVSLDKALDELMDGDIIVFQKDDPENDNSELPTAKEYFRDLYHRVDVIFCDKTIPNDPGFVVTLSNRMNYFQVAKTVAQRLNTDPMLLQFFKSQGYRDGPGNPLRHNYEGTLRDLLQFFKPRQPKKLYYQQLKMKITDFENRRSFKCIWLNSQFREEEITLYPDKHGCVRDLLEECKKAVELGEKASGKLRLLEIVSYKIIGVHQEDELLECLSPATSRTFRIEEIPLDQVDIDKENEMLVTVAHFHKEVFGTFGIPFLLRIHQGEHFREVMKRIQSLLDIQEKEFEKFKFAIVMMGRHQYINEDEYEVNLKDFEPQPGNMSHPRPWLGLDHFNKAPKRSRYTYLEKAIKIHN
Chain of serine protease NS3 (a.a. 3-181) from Hepatitis C virus genotype 2a (Q99IB8 1033-1211 limits assumed, other chains not shown): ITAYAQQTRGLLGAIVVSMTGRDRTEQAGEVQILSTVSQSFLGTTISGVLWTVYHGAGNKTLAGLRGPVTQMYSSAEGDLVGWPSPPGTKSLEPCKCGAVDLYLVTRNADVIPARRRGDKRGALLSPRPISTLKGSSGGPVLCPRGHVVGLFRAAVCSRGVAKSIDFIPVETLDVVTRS
Chain of Ubiquitin carboxyl-terminal hydrolase 14 (P54578 whole entry): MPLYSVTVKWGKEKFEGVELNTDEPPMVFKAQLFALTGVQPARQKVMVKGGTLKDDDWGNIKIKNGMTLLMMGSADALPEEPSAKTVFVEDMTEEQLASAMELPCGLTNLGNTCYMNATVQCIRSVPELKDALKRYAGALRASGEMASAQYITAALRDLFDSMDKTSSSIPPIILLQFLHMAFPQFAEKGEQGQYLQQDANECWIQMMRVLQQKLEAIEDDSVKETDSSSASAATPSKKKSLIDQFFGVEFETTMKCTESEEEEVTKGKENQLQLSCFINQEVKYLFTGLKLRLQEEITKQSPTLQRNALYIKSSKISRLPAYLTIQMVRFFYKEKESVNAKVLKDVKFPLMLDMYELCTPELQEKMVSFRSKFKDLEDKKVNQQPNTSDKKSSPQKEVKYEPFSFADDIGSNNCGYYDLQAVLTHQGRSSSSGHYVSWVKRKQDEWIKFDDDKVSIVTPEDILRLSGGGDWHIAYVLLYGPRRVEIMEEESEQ
Chain of Ataxin3 (P54252 whole entry, species assumed): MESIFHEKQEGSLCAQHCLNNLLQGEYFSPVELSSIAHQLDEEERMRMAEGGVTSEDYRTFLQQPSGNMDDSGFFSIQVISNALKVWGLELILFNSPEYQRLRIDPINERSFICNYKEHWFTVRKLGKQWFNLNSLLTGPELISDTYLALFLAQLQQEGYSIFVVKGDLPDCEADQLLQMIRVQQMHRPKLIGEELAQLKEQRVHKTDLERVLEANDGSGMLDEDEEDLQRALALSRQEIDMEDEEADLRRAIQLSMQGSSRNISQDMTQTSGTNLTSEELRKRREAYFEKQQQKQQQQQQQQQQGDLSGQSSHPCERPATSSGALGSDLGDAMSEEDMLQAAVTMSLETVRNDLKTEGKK

Compound: N#C[C@@H]1CC(F)(F)CN1C(=O)CNC(=O)c1ccnc2ccccc12 [SP-13786]
- Percentage inhibition (%), Reference (FAP): 100%

Compound: Ub-Aldehyde
- Percentage inhibition (%), Reference [1]: 92%
- Percentage inhibition (%), Reference (Deubiquitinase OTUD6B): 97%
- Percentage inhibition (%), Reference [2]: 73%
- Percentage inhibition (%), Reference [3]: 84%
- Percentage inhibition (%), Reference [4]: 95%
- Percentage inhibition (%), Reference (Ataxin3): 77%
- Percentage inhibition (%), Reference [5]: 82%
- Percentage inhibition (%), Reference [6]: 91%
- Percentage inhibition (%), Reference [7]: 96%
- Percentage inhibition (%), Reference [8]: 95%

Compound: N#Cc1ccc(NCCNCC(=O)N2N=CCC2C#N)nc1 (stereo not shown) [KR62436]
- Percentage inhibition (%), Reference (DPP8): 96%
- Percentage inhibition (%), Reference (DPP7): 83%

Compound: CC(C)(C)OC(=O)N[C@H]1CCCCC/C=C\[C@@H]2C[C@@]2(C(=O)NS(=O)(=O)C2CC2)NC(=O)[C@@H]2C[C@@H](OC(=O)N3Cc4cccc(F)c4C3)CN2C1=O [Denoprevir, reference compound]
- Percentage inhibition (%), Reference [9]: 98%
- Percentage inhibition (%), Reference [10]: 100%
- Percentage inhibition (%), Reference [11]: 94%
